Where no end group is shown, it is not given here.
Legend:
Format in all cases: cell-based
E. coli DH5α = experiment: Minimal bactericidal concentration (MBC); settings: Mueller Hinton, 18 hours of incubation
Experimental: (§1) The minimal bactericidal concentration (MBC) for each bacterial strain tested was determined as follows: The peptide was placed in a solution containing 0.01% acetic acid and 0.2% bovine serum albumin (BSA), then, serial dilutions of 2 in 2 are realized in the same 0.01% solution of acetic acid and 0.2% BSA. 10 μl of each dilution are incubated in sterile 96-well plates (Becton Dickinson, USA, ref: 18572) in the presence of 100 μl of a bacterial suspension brought to an optical density of 0.001 at 600 nm in the Mueller Hinton environment (MHB, SIGMA, ref: M-9677).
(§2) The bacterial growth is monitored after 18 hours of incubation under agitation. The MBC is determined by spreading out the content of the first three wells in which no bacterial growth was observed. This spreading out was carried out on Petri dishes on which an agar was poured prepared from the Mueller Hinton environment. These dishes were then incubated 18 hours. The MBC corresponds to the lowest concentration of peptide for which no bacterial colony was observed on the incubated dishes.

B. megaterium = experiment: Minimal bactericidal concentration (MBC); settings: Mueller Hinton, 18 hours of incubation
Experimental: as §1, §2

N. gonorrhoeae = experiment: Minimal bactericidal concentration (MBC); settings: Mueller Hinton, 18 hours of incubation
Experimental: as §1, §2

K. pneumoniae = experiment: Minimal bactericidal concentration (MBC); settings: Mueller Hinton, 18 hours of incubation
Experimental: as §1, §2

S. aureus = experiment: Minimal bactericidal concentration (MBC); settings: Mueller Hinton, 18 hours of incubation
Experimental: as §1, §2

E. faecalis = experiment: Minimal bactericidal concentration (MBC); settings: Mueller Hinton, 18 hours of incubation
Experimental: as §1, §2

A. viridans = experiment: Minimal bactericidal concentration (MBC); settings: Mueller Hinton, 18 hours of incubation
Experimental: as §1, §2

S. typhimutium = experiment: Minimal bactericidal concentration (MBC); settings: Mueller Hinton, 18 hours of incubation
Experimental: as §1, §2

E. aerogenes = experiment: Minimal bactericidal concentration (MBC); settings: Mueller Hinton, 18 hours of incubation
Experimental: as §1, §2

M. luteus = experiment: Minimal bactericidal concentration (MBC); settings: Mueller Hinton, 18 hours of incubation
Experimental: as §1, §2

P. aeruginosa = experiment: Minimal bactericidal concentration (MBC); settings: Mueller Hinton, 18 hours of incubation
Experimental: as §1, §2

sheep erythrocytes = experiment: Hemolytic activity on sheep erythrocytes
Experimental: A known quantity of peptide was placed in a solution containing […] acetic acid and 0.2% bovine serum albumin (BSA) in such a manner as to obtain a stock solution with a concentration of […]; then, serial dilutions of this solution were realized in the same solution of 0.01% acetic acid and 0.2% BSA (AA-BSA). […] of each of these solutions or […] of a 10% Triton X-100 solution in PBS (control—peptide) were then added to 180 μl of a solution containing 2.5% (volume/volume) of the suspension of sheep erythrocytes in PBS. The mixture was then incubated 30 minutes at 37° C. then submitted to a centrifugation that 10000 g for 3 minutes. Finally, the supernatant was recovered and its absorbance measured at 600 nm. The percentage of hemolysis is then calculated with the following equation: % hemolysis=(A600 of the sample−A600 of control-peptide)/(A600 control 100% hemolysis−A600 control-peptide)×100.

Question: For FWGHIWNAVKRVGANALHGAVTGALS [halocyntin], which MBC (E. coli DH5α) is on record?
Answer: 6.25 to 12.5 µM

Question: What about the MBC (B. megaterium) of the same sequence?
Answer: 0.75 to 1.56 µM

Question: What about the MBC (N. gonorrhoeae) of the same sequence?
Answer: 25 to 50 µM

Question: And the MBC (K. pneumoniae)?
Answer: 12.5 to 25 µM

Question: And the MBC (S. aureus)?
Answer: 6.25 to 12.5 µM

Question: What about the MBC (E. faecalis) of the same sequence?
Answer: 6.25 to 12.5 µM

Question: What about the MBC (A. viridans) of the same sequence?
Answer: 3.13 to 6.25 µM

Question: What about the MBC (S. typhimutium) of the same sequence?
Answer: 50 to 100 µM

Question: And the MBC (E. aerogenes)?
Answer: 25 to 50 µM

Question: What about the MBC (M. luteus) of the same sequence?
Answer: 1.56 to 3.13 µM

Question: And the MBC (P. aeruginosa)?
Answer: >100 µM

Question: And the hemolytic activity (sheep erythrocytes; beyond 12.5 mM)?
Answer: very faint hemolytic activity

Question: What about the hemolytic activity (sheep erythrocytes; concentration of 50 μM, 30 minutes at 37° C.) of the same sequence?
Answer: 5.8%

Question: What about the hemolytic activity (sheep erythrocytes; up to concentrations of 12.5 mM) of the same sequence?
Answer: does not show any hemolytic activity

— patent publication US7439418B2, “Anti-microbial peptide known as halocyntin, gene coding for said peptide, vector, transformed organism and composition containing said peptide” (Centre National de la Recherche Scientifique - CNRS, priority 2003, dated 2008)
